The values below are quoted from earlier work in patent US20170042143A1, “ANIONIC POLYVINYL ALCOHOL COPOLYMER AS PROTECTIVE COLLOID FOR PESTICIDAL POLYUREA MICROCAPSULES” (BASF SE, priority 2014, published 2017).

Structures are written as SMILES.

For this data set the following is noted: at 20° C.

On to `Cc1ccccc1CO[C@@H]1C[C@@]2(C(C)C)CC[C@]1(C)O2` (racemic) [Cinmethylin], for which the solubility in water result was “about 0.06 g/l”.
